| melting point | Structure (SMILES) |
| --- | --- |
| 164 to 165 °C | C=CCN(CC=C)c1nc(NC(=O)CCCC(=O)OC)n2oc(=O)nc2n1 |
| 195 °C | COC(=O)C1=C(C)NC(C)=C(C(=O)n2ccnc2)C1c1cccc2nonc12 (configuration not stated) |
| 198 to 201 °C | O=C(/C=C/C=C/c1ccccc1)NCCCOc1ccc(CC(=O)NO)cc1 |
| 139 to 141 °C | CC(C)c1cc(C(=O)Nc2ccc(CCC(=O)O)cc2)oc1C(C)C |
| 97 to 99 °C | COC(=O)Cc1ccccc1CSc1nc2cc(C(F)(F)F)ccc2s1 |
| 190 to 193 °C | O=C(Nc1c(Cl)cc(C(F)(c2cccs2)C(F)(F)F)cc1Cl)c1cccc(NC(=O)c2c(F)cc(F)cc2F)c1F (configuration not stated) |
| 186 to 187 °C | O=[N+]([O-])c1ccc(Cl)c(C(=S)Nc2ccc(Oc3ncc(C(F)(F)F)cc3Cl)cc2)c1 |
| 137 to 142 °C | CC(C)(C)c1ccc(NC(=O)N2CCCC3(CC2)CC(c2ccccc2)=NO3)cc1 (configuration not stated) |
| > 300 °C | Cn1c2ccc([N+](=O)[O-])cc2c2c3c(ccc21)C(=O)OC3=O |
| 139 to 140 °C | COc1c(C)cc(-c2cc(-c3cccnc3)c(N3CCOCC3)s2)nc1C |
| 228 to 232 °C | Nc1ccc(Sc2c(NCC=Cc3ccccc3)cc(C(=O)O)cc2S(N)(=O)=O)cc1 |
| > 260 °C | CNC(=O)Cn1c(-c2ccc([N+](=O)[O-])cc2)nc2cccnc21 |
| 50 to 51 °C | COC(=O)CCCCCCC1=CC(O)CC1=O (configuration not stated) |
| 200 to 202 °C | COC(=O)[C@H](Cc1ccc(NC(=O)c2c(Cl)cccc2Cl)cc1)NC(=S)C1(CCCCS(C)(=O)=O)CCCC1 |
| 129 °C | CC(=O)SCCNc1nc(-c2ccccc2)c2cc(Cl)ccc2n1 |
| 221 to 226 °C | NC(=O)NN=Cc1ccc(OCCc2coc(-c3ccccc3)n2)cc1 |
| 213 to 216 °C | O=C(NN=C1C=CC=NC1)c1cccnc1 |
| 146 to 148 °C | O=C1OC2=C(COc3ccccc32)C1=O |
| 159 to 160 °C | Cc1c(C)c2c(c(C)c1NS(C)(=O)=O)CC(C)(C)O2 |
| 164 to 167 °C | Cc1c(Cc2ccncc2)nnc(Nc2cccc(Cl)c2)c1C |
| 65 to 67 °C | CCN(CC)C(=O)c1c(C(F)F)ccc(F)c1[Si](C)(C)C |
| 122 to 123 °C | O=C(CCCCCC1(C(=O)O)CC1)CCCCCC1(C(=O)O)CC1 |
| 125 to 132 °C | CCc1noc(C=C(N)c2ccccc2)c1C(=O)NC |

| melting point | Structure (SMILES) |
| --- | --- |
| 169 to 170 °C | O=C(N[C@H](Cc1ccccc1)C(=O)O)OCc1cc2cc(-c3ccsc3)ccc2o1 |
| 141 to 143 °C | Cn1ncnc1-c1ccc(C(=O)C(=O)N2Cc3cccn3Cc3ccccc32)c(Cl)c1 |
| 63 to 64 °C | COc1ccccc1OCC(=O)NCCO[N+](=O)[O-] |
| 250 °C | CCOc1ccc2c(c1)n(C1CCCCC1)c(=O)n2Cc1ccc(NC(=O)N(C)C)cc1OC |
| 169 to 171 °C | OC(CNC1CC1)COc1ccc(-c2nc(C(F)(F)F)c[nH]2)cc1 (configuration not stated) |
| 150 to 151 °C | CCC(=NOC)C1=C(O)CC(c2ccc(NS(C)(=O)=O)cc2)CC1=O (configuration not stated) |
| 250 °C | CCOc1cc(-c2cc(C(F)(F)F)n3ncc(C(=O)Nc4cc(S(=O)(=O)NCCO)sc4Cl)c3n2)ccc1C(F)(F)F |
| 90 to 92 °C | Cn1nnnc1-c1ccc(CCl)cc1 |
| 82 to 85 °C | COC(=O)C1=C(C)NC(C)=C(C(=O)OCCN2CCC(C(c3ccccc3)c3ccccc3)CC2)C1c1cccc([N+](=O)[O-])c1 (configuration not stated) |
| 270 to 272 °C | COc1cc2nc(N)nc(-c3ccc(Br)cc3)c2cc1OC |
| 300 to 302 °C | COc1ccc(Cc2n[nH]c3c2c(=O)n(-c2ccccc2)c2ncccc32)cc1 |
| 157 to 158 °C | N#Cc1ccc(OCCCOc2cccc(-c3cc4cc(C#N)ccc4o3)c2)cc1 |
| 175 to 176 °C | COc1ccc2c(c1OC)CC(c1ccccc1)CC2(O)CN (configuration not stated) |
| 220 to 221 °C | COc1ccc(COc2ccc(OC)c(Cc3cnc(N)nc3N)c2)cc1 |
| 81 to 82 °C | OCc1nccc2c1CCCC2 |
| 228 to 229 °C | COc1c(Cl)ccc2c1C(O)(c1ccccc1Cl)C(=O)N2 (configuration not stated) |
| 54 to 56 °C | O=C1N(Cc2ccc(OC(F)(F)F)cc2)C(=NCC(F)(F)F)SCN1c1ccccc1 |
| 214 to 216 °C | COc1ccc(Oc2c(Br)cc(C#N)cc2Br)cc1Cc1ccc(=O)[nH]n1 |
| 71 to 73 °C | CCOC(=O)c1ccc(C#Cc2ccc(C)cc2)c(OC)c1 |
| 119 to 120 °C | Cc1nccn1-c1nc(-c2ccc(Cl)cc2)c(CCC2=NCCO2)o1 |
| 102 to 103 °C | CCCC[C@H](NC(=O)[C@H](CC(C)C)NC(=O)c1cc2cccc(F)c2o1)C(=O)CSCc1ccco1 |
| 215 to 218 °C | N#CC(=C1Nc2ccccc2O1)S(=O)(=O)c1ccccc1 |
| 126 to 127 °C | NC(CO)(CO)CCc1ccc(C(=O)CCCCc2ccccc2)cc1 |

| melting point | Structure (SMILES) |
| --- | --- |
| 120 to 122 °C | N#CCCN(N)c1cc2ccccc2[nH]1 |
| 128 to 130 °C | CCOC(=O)Cc1c([N+](=O)[O-])cc(OCc2ccccc2)c2ccccc12 |
| 156 to 158 °C | CCCOc1ccccc1-c1nc2cc(SC)ccc2c(=O)[nH]1 |
| 271 to 273 °C | CC(C)c1ccc(N(C)C(=O)Cn2cnc3[nH]c(=O)n(C)c(=O)c32)cc1 |
| 223 to 225 °C | COc1cc(S(C)(=O)=O)ccc1-c1nc2cc3c(cc2[nH]1)N(C(C)=O)CC3(C)C |
| 160 to 161 °C | CN(c1cccc2cc(-c3ncc(CCC(=O)N4CCOCC4)s3)[nH]c12)S(=O)(=O)c1cccs1 |
| 70 to 76 °C | CC(C)CC1CNCCNCCNCCNCCN1 (configuration not stated) |
| 134 to 135 °C | CCOc1nn(-c2ccc(C(F)(F)F)cn2)cc1CCOc1ccccc1CC(=O)O |
| 174 to 176 °C | Nc1nc(NC2CC2)c2ncn([C@@H]3C[C@H](CO)[C@@H](O)C3)c2n1 |
| 90 to 91 °C | CC(C)Oc1cc(CCCOc2ncccc2CC(=O)O)n(Cc2ccc(F)cc2Cl)n1 |
| 105 to 108 °C | CC(C)(C)c1cc(N)cc(C(C)(C)C)c1O |
| 105 to 107 °C | CCOC(=O)C1=C(C)NC(C(OCC)OCC)=C(C(=O)OCC)C1c1ccccc1OC (configuration not stated) |
| 74 to 75 °C | CCCOC(=O)c1ccc(OC(=O)CCCC(=O)Oc2ccc(C(=O)OCCC)cc2)cc1 |
| 215 to 217 °C | CCCn1cnc2c1c1nnc(-c3ccccc3)n1c(=O)n2CCC |
| 72 to 74 °C | O=C(Oc1ccc(Cl)c(OCC2CC2(Cl)Cl)c1)N1CCCC1 (configuration not stated) |
| 127 to 129 °C | CCC(C)(CC)NC(=O)C1(O)CC(C)(C)NC(C)(C)C1 |
| 60 to 60.5 °C | FC(F)(F)C(F)(F)C(F)(F)c1nc(-c2ccc(OCCCn3ccnc3)cc2)no1 |
| 99 to 101 °C | CCCCCCCCCCCCCCCCCCNC(=O)c1cc(OC(C)=O)cc(OC(C)=O)c1 |
| 196 to 199 °C | CCC1c2ccc(C#N)n2-c2ccc(F)cc2N1S(=O)(=O)c1ccc(OC)c(C)c1 (configuration not stated) |
| 189 to 190 °C | O=C(O)CC(CC(=O)O)NC(=O)OCC1c2ccccc2-c2ccccc21 |
| 236 to 238 °C | O=C(O)c1ccc(S(=O)(=O)Oc2ccc(-c3ccc(-c4c(Cc5ccccc5)sc5ccccc45)cc3)cc2)cc1O |
| 183 to 185 °C | Cn1c(COc2ccc(CC3SC(=O)NC3=O)cc2)cc2cccnc21 (configuration not stated) |
| 156 to 157 °C | Cc1ccc(Sc2ccccc2)c(C(=O)O)c1 |

| melting point | Structure (SMILES) |
| --- | --- |
| 209 to 211 °C | COc1cc(-c2ccccc2Cl)c(Cl)cc1C(=O)N1Cc2cccn2Cc2ccccc21 |
| 66 to 67 °C | Cc1cccc2c1CCN=C2c1ccc(Cl)cc1 |
| 144 °C | COc1ccc(-c2nc(-c3ccc4c(c3)N(C)C(=O)CS4)cs2)cc1OC |
| 124 to 126 °C | CC(=O)NCC1CC1c1cccc2nc(C)nn12 (configuration not stated) |
| 207 °C | CCn1cc(C(=O)O)c(=O)c2cnc(N3CCN(Cc4ccccc4)CC3)nc21 |
| 54 °C | CCCCOC(=O)[C@@H]1OC(c2ccc(C#Cc3ccc(C4O[C@@H](C(=O)OCCCC)[C@H](C(=O)OCCCC)O4)cc3)cc2)O[C@H]1C(=O)OCCCC |
| 262 to 269 °C | CNC(=O)c1ccccc1Nc1nc(Nc2ccc3c(c2)CCC(=O)CC3)ncc1Cl |
| 96 to 98 °C | COC(=O)CCCc1cc2nc(Cl)ccc2n1S(=O)(=O)c1ccc(F)c(F)c1 |
| 266 to 268 °C | Cc1ccc(-c2cc3cc(C4=NNC(=O)CC4)ccc3[nH]2)cc1 |
| 94 °C | CCOC(=O)c1cc2cc(CC)ccc2[nH]1 |
| 152 to 154 °C | CC(Cc1ccccc1)(C(=NC#N)NCc1ccco1)c1ccccn1 (configuration not stated) |
| 80 to 110 °C | CC(C)(C)c1cc(CCC(=O)NCCNCCNCCNC(=O)CCc2cc(C(C)(C)C)c(O)c(C(C)(C)C)c2)cc(C(C)(C)C)c1O |
| 166 °C | Cc1ccc(N)cc1Nc1ncc(-c2cccnc2)o1 |
| 214 to 217 °C | CC(C)(C)NC(=O)c1ccc(N2CCN(c3ccncc3)CC2)cc1 |
| 83.5 to 85 °C | Cc1ccc(-c2c(N=[N+]=[N-])ncnc2OCCO)cc1 |
| 108 to 109 °C | COC(=O)c1cncn1C1c2ccccc2CSC1(C)C (configuration not stated) |
| 90 to 95 °C | C=C(C)C(=O)OCCCCCCOc1ccc(C=Cc2ccc([N+](=O)[O-])cc2)cc1 |
| 173 to 174 °C | CCN(CC)CC1CCCCN1CC(=O)N1c2ccc(C)cc2C(=O)Nc2cccnc21 (configuration not stated) |
| 175 to 179 °C | CCCCCC(=N)NC(=O)Nc1ccc(Cl)cc1 |
| 137 to 138 °C | N#Cc1ccccc1N1CCN(CC(=O)Nc2ccccc2)CC1 |
| 188 to 189 °C | CS(=O)(=O)c1ccc(-n2cncc2-c2ccccc2F)cc1 |
| 249 °C | Cc1ccc(NC(=O)c2cnn3c(C(F)F)cc(-c4ccc(C(F)(F)F)cc4)nc23)cc1S(N)(=O)=O |
| 132 °C | C=CC[C@@](O)(C(=O)O)c1ccccc1 |

| Structure (SMILES) | melting point |
| --- | --- |
| CCC1C2C3Cc4ccc(OC)c5c4C2(CCN3C)C(O5)C(O)C1(C)C (configuration not stated) | 104 to 108 °C |
| O=C(O)c1cccc(Cc2c[nH]cn2)c1O | 245 to 252 °C |
| CCCCCC(C)C(C)c1cc(O)c2c(c1)OC(C)(C)C1=C2CN(CC(=O)Nc2ccccc2)CC1 (configuration not stated) | 125 to 127 °C |
| O=C(NCC1CC1)c1c(NC(=O)c2cc(C(F)(F)F)nn2-c2ncccc2Cl)c(Cl)cc2cn[nH]c12 | > 250 °C |
| CN1CC=C(c2c[nH]c3ccc(Sc4ccccc4)cc23)CC1 | 225 to 228 °C |
